Laboratory results: ChEMBL document CHEMBL4421717, “Antagonists and agonists of bitter taste receptors and uses thereof” (2012)
pIC50: −log10 of the molar value. Active and inactive are the calls of the source. The rule behind the calls is not given here.

How the values were obtained:
Type in all cases: functional, cell-based
[1] = target: Taste receptor type 2 member 40 (Homo sapiens) (UniProt P59535); experiment: Agonist activity at recombinant human N-terminal rat ST3 receptor-fused TAS2R40 expressed in HEK293T cells co-expressing Galpha16gust44 assessed as effect on intracellular calcium level at 100 uM by FLIPR assay
[2] = target: T1, Taste receptor type 2 member 13 (Homo sapiens) (UniProt Q9NYV9); experiment: Agonist activity at recombinant human N-terminal rat ST3 receptor-fused TAS2R13 expressed in HEK293T cells co-expressing Galpha16gust44 assessed as effect on intracellular calcium level at 100 uM by FLIPR assay
T1 sequence (whole entry): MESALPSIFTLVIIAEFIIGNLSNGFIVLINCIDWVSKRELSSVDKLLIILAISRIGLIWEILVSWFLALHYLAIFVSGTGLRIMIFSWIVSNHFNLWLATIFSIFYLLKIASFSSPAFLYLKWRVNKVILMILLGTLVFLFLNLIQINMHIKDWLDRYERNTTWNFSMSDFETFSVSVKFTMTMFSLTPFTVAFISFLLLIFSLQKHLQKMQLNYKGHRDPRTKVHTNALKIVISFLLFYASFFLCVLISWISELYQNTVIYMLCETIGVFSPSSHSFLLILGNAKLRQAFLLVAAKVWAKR

[3] = target: T2, Taste receptor type 2 member 46 (Homo sapiens) (UniProt P59540); experiment: (§1) Competitive antagonist activity at recombinant human N-terminal rat ST3 receptor-fused TAS2R46 expressed in HEK293T cells co-expressing Galpha16gust44 assessed as inhibition strychnine-induced intracellular calcium level by FLIPR assay
T2 sequence (whole entry): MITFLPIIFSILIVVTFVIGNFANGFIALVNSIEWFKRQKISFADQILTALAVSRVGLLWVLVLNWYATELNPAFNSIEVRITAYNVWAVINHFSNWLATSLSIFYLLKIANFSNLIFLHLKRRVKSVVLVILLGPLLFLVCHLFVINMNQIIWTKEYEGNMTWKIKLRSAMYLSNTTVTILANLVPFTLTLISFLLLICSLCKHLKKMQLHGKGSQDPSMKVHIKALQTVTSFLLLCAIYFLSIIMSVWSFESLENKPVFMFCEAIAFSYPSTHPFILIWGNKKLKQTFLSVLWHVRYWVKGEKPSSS

[4] = target: T3, Taste receptor type 2 member 20 (Homo sapiens) (UniProt P59543); experiment: Agonist activity at recombinant human N-terminal rat ST3 receptor-fused TAS2R49 expressed in HEK293T cells co-expressing Galpha16gust44 assessed as effect on intracellular calcium level at 100 uM by FLIPR assay
T3 sequence (whole entry): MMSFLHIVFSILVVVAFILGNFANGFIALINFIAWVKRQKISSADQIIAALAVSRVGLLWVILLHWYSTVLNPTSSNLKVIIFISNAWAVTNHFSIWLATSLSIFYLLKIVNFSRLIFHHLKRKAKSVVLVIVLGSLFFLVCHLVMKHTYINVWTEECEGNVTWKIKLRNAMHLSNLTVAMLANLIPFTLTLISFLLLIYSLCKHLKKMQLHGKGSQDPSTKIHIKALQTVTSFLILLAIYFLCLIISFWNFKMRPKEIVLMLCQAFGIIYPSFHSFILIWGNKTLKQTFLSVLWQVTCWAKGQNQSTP

[5] = target: T2, Taste receptor type 2 member 46 (Homo sapiens); experiment: as §1, with “by measuring strychnine induced maximum signal amplitude at 100 uM by” for “by”, “assay (reference value: 0.42 +/- 0.09 au))” for “assay”
[6] = target: T4, Taste receptor type 2 member 30 (Homo sapiens) (UniProt P59541); experiment: Agonist activity at recombinant human N-terminal rat ST3 receptor-fused TAS2R47 expressed in HEK293T cells co-expressing Galpha16gust44 assessed as effect on intracellular calcium level at 100 uM by FLIPR assay
T4 sequence (whole entry): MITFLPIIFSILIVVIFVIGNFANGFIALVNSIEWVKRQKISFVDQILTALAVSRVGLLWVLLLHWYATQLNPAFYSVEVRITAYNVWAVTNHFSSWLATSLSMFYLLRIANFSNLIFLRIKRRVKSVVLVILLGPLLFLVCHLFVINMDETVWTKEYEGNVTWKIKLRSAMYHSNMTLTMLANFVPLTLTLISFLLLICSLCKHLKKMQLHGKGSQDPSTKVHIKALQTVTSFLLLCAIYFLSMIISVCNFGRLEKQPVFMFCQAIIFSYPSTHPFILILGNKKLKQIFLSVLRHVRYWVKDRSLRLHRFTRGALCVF

[7] = target: T5, Taste receptor type 2 member 1 (Homo sapiens) (UniProt Q9NYW7); experiment: Agonist activity at recombinant human N-terminal rat ST3 receptor-fused TAS2R1 expressed in HEK293T cells co-expressing Galpha16gust44 assessed as effect on intracellular calcium level at 100 uM by FLIPR assay
T5 sequence (whole entry): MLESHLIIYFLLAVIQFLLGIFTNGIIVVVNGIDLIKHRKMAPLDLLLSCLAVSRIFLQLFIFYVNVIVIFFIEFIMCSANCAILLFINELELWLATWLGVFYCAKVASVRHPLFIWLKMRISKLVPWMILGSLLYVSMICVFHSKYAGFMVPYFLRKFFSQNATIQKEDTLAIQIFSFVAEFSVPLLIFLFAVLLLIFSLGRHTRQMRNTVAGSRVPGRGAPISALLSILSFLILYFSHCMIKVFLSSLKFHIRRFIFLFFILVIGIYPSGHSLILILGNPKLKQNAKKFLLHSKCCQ

[8] = target: T6, Taste receptor type 2 member 9 (Homo sapiens) (UniProt Q9NYW1); experiment: Agonist activity at recombinant human N-terminal rat ST3 receptor-fused TAS2R9 expressed in HEK293T cells co-expressing Galpha16gust44 assessed as effect on intracellular calcium level at 100 uM by FLIPR assay
T6 sequence (whole entry): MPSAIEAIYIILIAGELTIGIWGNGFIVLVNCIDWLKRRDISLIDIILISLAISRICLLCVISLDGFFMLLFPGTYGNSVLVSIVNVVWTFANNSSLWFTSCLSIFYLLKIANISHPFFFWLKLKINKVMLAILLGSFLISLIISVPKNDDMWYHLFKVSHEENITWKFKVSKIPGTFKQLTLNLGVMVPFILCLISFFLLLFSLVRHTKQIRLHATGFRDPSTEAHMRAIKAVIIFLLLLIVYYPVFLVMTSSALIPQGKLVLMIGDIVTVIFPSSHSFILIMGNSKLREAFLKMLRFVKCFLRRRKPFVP

[9] = target: Taste receptor type 2 member 31 (Homo sapiens) (UniProt P59538); experiment: Antagonist activity at recombinant human N-terminal rat ST3 receptor-fused TAS2R44 expressed in HEK293T cells co-expressing Galpha16gust44 assessed as inhibition of aristolochic acids-induced intracellular calcium level at 100 uM by FLIPR assay
[10] = target: T7, Taste receptor type 2 member 46 (Homo sapiens, UniProt P59540); experiment: Antagonist activity at recombinant human N-terminal rat ST3 receptor-fused TAS2R46 expressed in HEK293T cells co-expressing Galpha16gust44 assessed as inhibition of 300 uM denatonium benzoate-induced intracellular calcium level 100 uM by FLIPR assay
T7 sequence (P59540 whole entry): T2 sequence (whole entry)

Chain of Taste receptor type 2 member 40 (Homo sapiens) (P59535 whole entry, the tested form may be a part): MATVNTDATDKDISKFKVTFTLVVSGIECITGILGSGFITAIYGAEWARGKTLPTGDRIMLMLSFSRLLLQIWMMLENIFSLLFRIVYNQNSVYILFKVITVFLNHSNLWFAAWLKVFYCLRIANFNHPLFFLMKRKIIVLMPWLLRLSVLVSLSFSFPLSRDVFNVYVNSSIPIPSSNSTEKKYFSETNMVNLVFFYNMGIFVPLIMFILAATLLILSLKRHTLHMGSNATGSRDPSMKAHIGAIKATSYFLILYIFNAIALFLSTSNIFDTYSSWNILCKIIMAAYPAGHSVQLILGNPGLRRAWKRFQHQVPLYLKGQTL
Chain of Taste receptor type 2 member 31 (Homo sapiens) (P59538 whole entry, the tested form may be a part): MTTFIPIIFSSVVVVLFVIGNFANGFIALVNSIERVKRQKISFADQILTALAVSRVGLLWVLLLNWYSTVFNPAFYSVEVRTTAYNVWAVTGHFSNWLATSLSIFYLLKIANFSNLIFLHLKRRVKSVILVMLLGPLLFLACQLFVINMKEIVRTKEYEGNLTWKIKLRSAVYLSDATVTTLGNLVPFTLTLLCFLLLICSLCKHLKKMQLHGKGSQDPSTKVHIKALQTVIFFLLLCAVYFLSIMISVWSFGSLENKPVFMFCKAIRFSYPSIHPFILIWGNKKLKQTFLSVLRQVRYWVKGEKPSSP

Row | Compound | Activity [1] | Activity [2] | inhibition [3] | Activity [4] | Activity [5] | Activity [6] | Activity [7] | Activity [8] | inhibition [9] | pIC50 [10]
1 | C/C1=C\C[C@H](O)/C(C)=C/[C@H]2OC(=O)[C@@H](C)C2CC1 (stereo not given in full) | inactive | inactive | Active | inactive | 0.34 a.u. | inactive | Active | inactive |  | 
2 | C/C1=C\C[C@H](O)[C@@H](C)C[C@H]2OC(=O)[C@@H](C)C2CC1 (stereo not given in full) |  |  |  |  |  |  |  |  | Active | 4.29
